Laboratory results as given in patent US20220023302A1, “PDE9 INHIBITORS FOR TREATING SICKLE CELL DISEASE” (Imara Inc., priority 2019, published 2022).
Converted amounts (≈) assume the structure as drawn. “Also recorded” adds a separate entry of the source.

Experiments:
Townes mouse model = assay: Plasma sE-Sel in the Townes mouse model; type: in vivo; conditions: Townes mice treated with Compound 1
Description: Endothelial E-selectin (E-Sel) slows leukocyte rolling, which is followed by stationary adhesion and transmigration of activated leukocytes. Plasma levels of sE-Sel, produced by the enzymatic cleavage of the extracellular domains of E-Sel, are increased in SCD patients and this may be mediated by its interaction with leukocytes. In the Townes mouse model, plasma sE-Sel is increased 144% ([…]) over levels seen in control mice ([…]).

Townes mice = assay: Myeloid and neutrophil inflammatory markers in the lungs of Townes mice; type: in vivo, mouse
Excerpt: (§1) This appears to be accompanied by a Compound 1-mediated reduction in disease specific cell activation including 67% lower levels of myeloid derived myeloperoxidase (MPO) and 26% lower levels of neutrophil derived arginase in the lung (FIG. 1). […] This was quantified by real time monitoring of the green florescent patches in the microchannel, as neutrophils are labeled by a specific Alexa Fluor® 488-conjugated antibody before the perfusion step. […] Under these conditions, adhesion was reduced an average of 54% (p=0.03) (FIG. 2). Mechanistically, not willing to be bound by any theory, Compound 1 may target the stationary adhesion step of neutrophils as it lowered expression levels of key neutrophil integrins including CD11a [reduced 23% (p=0.002)], CD11b [reduced 39% (ns)) and CD18 [reduced 47% (p=0.03)) (FIG. 3).

SCD models = assay: Circulating levels of PMNs in SCD models; type: in vivo, murine
Excerpt: as §1, with “Recently several drugs targeting white cell binding to endothelial cells, have been advancing in clinical studies in patients. Compound 1 is able to increase expression of fetal hemoglobin in patient derived cells and murine models of SCD and reduce vessel occlusion in SCD murine models. In this Example, the ability of Compound 1 to reduce the adhesive properties of neutrophils from SCD patients and reduce sE-Selectin (sE-Sel) and markers of PMN activation in murine SCD models was studied. […] This appears” for “This appears”

SCD patient neutrophils = assay: In vitro adhesion assay mimicking blood flow (microchannels lined with activated HMEC-1); type: cell-based, human
Excerpt: as §1

[1] = system: CD11a, CD11b and CD18 integrins on SCD patient neutrophils; assay: Integrin expression on SCD patient neutrophils; type: cell-based, human
Excerpt: as §1

[2] = system: Erythroid cell lines (K562, UT-7); assay: In vitro studies in erythroid cell lines vs. HU; type: cell-based
Excerpt: The effects of Compound 1 is compared with HU in in vitro studies in erythroid cell lines (K562 and UT-7).

[3] = system: SCD patient derived cell lines; assay: Study in SCD patient derived cell lines; type: cell-based, human
Townes SCD model = assay: 28 day Townes SCD model, Compound 1 vs. HU (RBC/WBC); type: in vivo, mouse
Description: In one study, Compound 1 and therapeutic doses of HU (25 mg/kg and 50 mg/kg) were tested side-by-side in the 28 day Townes SCD model (oral daily). […] MPO is a monocyte inflammatory marker. Plasma nitrate is improved nitrate levels. Lower levels of plasma nitrate may contribute to hemolysis in SCD patients.

[4] = system: In-vivo SCD: vaso occlusion; assay: In-vivo SCD: vaso occlusion (WBC)
C57B1/6J = assay: In-vivo cognition: C57B1/6J
Solubility in water = type: physicochemical
Description: Per taste testing results, bitterness could be detected for all these samples. […] At this level of solubility, masking the taste of Compound 1 in an oral solution is challenging. Even high level of sucralose was evaluated and taste of the oral solution remained bitter. […] Furthermore, strawberry flavor was chosen, because patients like its sweet taste and it has a good solubility in water. Orange juice or lime juice may be used to dilute the oral solution and to mask the bitter taste before administration.

[5] = Stability of Compound 1 in solution as a function of pH; type: physicochemical
Excerpt: The pH of the solution affects the compound stability and solubility. […] In some embodiments, pharmaceutical composition has a pH from about 3.0 to about 7.0. In some embodiments, the pharmaceutical composition has a pH from about 3.0 to about 6.0, or from about 5.5 to about 6.5. In some embodiments, pH of the pharmaceutical composition is about 5.5, about 5.6, about 5.7, about 5.8, about 5.9, about 6.0, about 6.1, about 6.2, about 6.3, about 6.4, or about 6.5. In some embodiments, pH of the pharmaceutical composition is about 5.5. In some embodiments, pH of the pharmaceutical composition is about 6.0.
There is no obvious excipient that can mask its taste. Another major challenge was to optimize the excipients quantity. […] In some embodiments, a pharmaceutical composition of pH above 5.5 comprising Compound 1 is provided. […] Extensive formulation development and manufacturing process studies were carried out. Other challenges are the excipient compatibility and stability of the API in solution.

[6] = Clinical safety and tolerability; type: in vivo, human
Description: In some embodiments, Compound 1, or a pharmaceutically acceptable salt, solvate, or hydrate thereof is administered to a patient, wherein Compound 1, or a pharmaceutically acceptable salt, solvate, or hydrate thereof, is administered once a day with food. […] The incidence and severity of the side effects, such as nausea, emesis and headache, can be reduced when Compound 1, or a pharmaceutically acceptable salt, solvate, or hydrate thereof, is taken with food.
Therefore, Population A is designed to explore the PD dose response in patients as well as the tolerability of the 200 mg dose level in sickle cell patients who have tolerated the 100 mg dose well.

[7] = Nonclinical data on concomitant administration of HU with Compound 1; type: in vivo
Description: Results from Population B are intended to provide information on Compound 1 when administered concomitantly with HU, both of which increase HbF levels through alternative biochemical pathways that increase intracellular cGMP. Because there are no clinical data to support administration of Compound 1 concomitantly with HU, patients in Population B initiate Compound 1 dosing at the low dose (30 mg or 50 mg) used in Population A and only escalate to the 100 mg dose if the 50 mg dose has been safe and tolerated for 4 weeks.

## C[C@@H]1CN(Cc2ncccn2)C[C@H]1c1cn2c(C3CCOCC3)ncc2c(=O)[nH]1 [Compound 1, 6-[(3S,4S)-4-methyl-1-(pyrimidin-2-ylmethyl)pyrrolidin-3-yl]-3-tetrahydropyran-4-yl-7H-imidazo[1,5-a]pyrazin-8-one]
Townes mouse model; control mice 57, Townes mice 139
  plasma sE-Sel levels: 92 ng/mL
Townes mouse model; untreated Townes 144%
  plasma sE-Sel elevation over control mice: 61%
Townes mice; Townes mice, FIG. 1 legend
  myeloid and neutrophil inflammatory markers in the lungs: reduces
Townes mice; lung, FIG. 1
  lower levels of myeloid derived myeloperoxidase (MPO) in the lung: 67%
  lower levels of neutrophil derived arginase in the lung: 26%
SCD models
  circulating levels of PMNs: reduced
SCD patient neutrophils; 30 min incubation with 30 μM, average, p=0.03, FIG. 2
  reduction of neutrophil adhesion to activated HMEC-1: 54%
SCD patient neutrophils; added to whole blood samples prior to perfusion
  adhesion of SCD patient neutrophils to endothelial cells: reduced adhesions significantly and in a dose dependent manner; also recorded: reduces adhesion
[1]; FIG. 3 legend
  expression of CD11a, CD11b and CD18 integrins: reduces expression
[1]; ns, FIG. 3
  CD11b expression reduced: 39%
[1]; p=0.002, FIG. 3
  CD11a expression reduced: 23%
[1]; p=0.03, FIG. 3
  CD18 expression reduced: 47%
[2]
  cGMP levels vs. HU: increased cGMP levels compared with HU; also recorded: Increased cGMP levels vs. HU;
  induction of HbF (RNA, protein, etc.): induction of HbF (RNA, protein, etc.)
[3]
  F-cells %: F-cells % increase
  HbF: increases in HbF
Townes SCD model; 28 day, oral daily, Compound 1 30 mg/kg, HU 25 and 50 mg/kg, FIG. 4
  key measures of RBC pathology (sickled RBCs; unconjugated bilirubin; % HbF cells; LDH activity) vs. HU: outperforms HU in a statistically significant manner
Townes SCD model; 28 day, oral daily, Compound 1 30 mg/kg, HU 25 and 50 mg/kg, FIG. 5
  measures of WBC pathology vs. HU: outperforms HU in a statistically significant manner
Townes SCD model; Townes
  RBC/WBC parameters vs. HU: Statistically better results than HU
[4]
  vaso occlusion (WBC) vs. HU: Better results vs. HU; combo
C57B1/6J
  CNS activity: No CNS activity
Solubility in water
  solubility: ~1000 mg/mL (≈ 2530 mM)
[5]
  stability at a lower pH: unstable
[6]; once a day with food
  effect of food on adverse event profile (nausea, emesis, headache): dramatically reduce the adverse event profile
[6]; once daily doses of 30, 50, 100, and 200 mg, nonclinical and healthy volunteer clinical data
  safety and tolerability: safe and well tolerated
[7]
  increase of Compound 1 exposure by concomitant HU: do not suggest
